Test results reported in patent US10246429B2, “Vinyl fluoride cyclopropyl fused thiazin-2-amine compounds as beta-secretase inhibitors and methods of use” (AMGEN INC., priority 2015, dated 2019).

Experiments:
BACE2 = BACE2 (Homo sapiens (Human), UniProt Q9Y5Z0); test: In vitro enzymatic BACE2 FRET assay; type: biochemical; conditions: read-out: IC50 IP (μM) BACE2 Enzyme
From the text: In Vitro Enzymatic BACE1 and BACE2 FRET (Fluorescence Resonance Energy Transfer) Assays (Enzyme Assay Data in Table 1)

Cathepsin D (CatD) = Cathepsin D (CatD) (Homo sapiens (Human), UniProt P07339); test: CatD assay; type: biochemical; conditions: read-out: IC50 IP (μM) CatD
Sequence of Cathepsin D (CatD) (P07339 65-412, species assumed): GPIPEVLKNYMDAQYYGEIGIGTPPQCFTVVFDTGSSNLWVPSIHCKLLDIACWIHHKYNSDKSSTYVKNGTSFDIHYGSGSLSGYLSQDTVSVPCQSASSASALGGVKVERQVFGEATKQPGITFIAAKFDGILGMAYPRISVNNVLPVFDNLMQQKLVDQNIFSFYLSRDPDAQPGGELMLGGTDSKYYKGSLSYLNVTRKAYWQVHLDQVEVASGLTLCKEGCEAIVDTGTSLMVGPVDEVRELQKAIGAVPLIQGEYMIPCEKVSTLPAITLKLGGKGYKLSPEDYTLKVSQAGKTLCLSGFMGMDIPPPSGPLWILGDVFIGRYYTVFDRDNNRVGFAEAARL

Sequence of BACE2 (Q9Y5Z0 63-518): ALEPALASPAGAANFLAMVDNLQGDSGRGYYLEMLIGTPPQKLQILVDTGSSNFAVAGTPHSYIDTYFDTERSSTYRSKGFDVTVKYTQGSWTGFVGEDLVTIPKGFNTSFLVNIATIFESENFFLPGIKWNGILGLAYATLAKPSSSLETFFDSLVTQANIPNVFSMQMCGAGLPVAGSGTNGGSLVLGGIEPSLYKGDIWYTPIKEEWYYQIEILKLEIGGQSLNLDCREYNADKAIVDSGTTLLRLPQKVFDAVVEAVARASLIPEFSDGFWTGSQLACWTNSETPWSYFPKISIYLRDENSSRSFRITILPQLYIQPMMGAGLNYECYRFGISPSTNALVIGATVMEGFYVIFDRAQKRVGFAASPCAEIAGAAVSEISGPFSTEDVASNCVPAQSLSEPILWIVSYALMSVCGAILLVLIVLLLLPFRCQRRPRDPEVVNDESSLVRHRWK

Compound	IC50 (BACE2)	IC50 (Cathepsin D (CatD))
C[C@@H]1COCCN1C(=O)[C@]12C[C@H]1[C@@](C)(c1cc(/C=C(\F)c3ccc(C#N)cn3)cnc1F)N=C(N)S2 [Example 290, 6-((Z)-2-(5-((1S,5S,6S)-3-amino-5-methyl-1-((R)-3-methylmorpholine-4-carbonyl)-2-thia-4-azabicyclo[4.1.0]hept-3-en-5-yl)-6-fluoropyridin-3-yl)-1-fluorovinyl)nicotinonitrile]	0.229 µM	400 µM
CNC(=O)[C@]12C[C@H]1[C@@](C)(c1cc(/C=C(\F)c3ccc(C#CC(C)(C)C)cn3)ccc1F)N=C(N)S2 [Example 359, (1S,5S,6S)-3-amino-5-(5-((Z)-2-(5-(3,3-dimethylbut-1-yn-1-yl)pyridin-2-yl)-2-fluorovinyl)-2-fluorophenyl)-N,5-dimethyl-2-thia-4-azabicyclo[4.1.0]hept-3-ene-1-carboxamide]	0.794 µM	26 µM
C[C@]1(c2cc(/C=C(\F)c3ccc(C#N)cn3)ccc2F)N=C(N)S[C@@]2(C(=O)N3CCCC(c4ccccc4)C3)C[C@H]21 (stereo partly drawn) [Example 140, 6-((Z)-2-(3-((1S,5S,6S)-3-amino-5-methyl-1-(3-phenylpiperidine-1-carbonyl)-2-thia-4-azabicyclo[4.1.0]hept-3-en-5-yl)-4-fluorophenyl)-1-fluorovinyl)nicotinonitrile]	0.0131 µM	12.8 µM
C[C@]1(c2cc(/C=C(\F)c3ccc(C#N)cn3)ccc2F)N=C(N)S[C@@]2(C(=O)N3CCN(CC4CC4)CC3)C[C@H]21 [Example 141, 6-((Z)-2-(3-((1S,5S,6S)-3-amino-1-(4-(cyclopropylmethyl)piperazine-1-carbonyl)-5-methyl-2-thia-4-azabicyclo[4.1.0]hept-3-en-5-yl)-4-fluorophenyl)-1-fluorovinyl)nicotinonitrile]	0.336 µM	400 µM
COC(=O)[C@@]12SC(N)=N[C@](C)(c3cc(/C=C(\F)c4ccc(C#N)cn4)ccc3F)[C@@H]1C2(F)F [Example 256, (1S,5S,6R)-methyl 3-amino-5-(5-((Z)-2-(5-cyanopyridin-2-yl)-2-fluorovinyl)-2-fluorophenyl)-7,7-difluoro-5-methyl-2-thia-4-azabicyclo[4.1.0]hept-3-ene-1-carboxylate]	0.252 µM	760 µM
CN(C)C(=O)[C@]12C[C@H]1[C@@](C)(c1cc(/C=C(\F)c3ccc(C#N)nc3)ccc1F)N=C(N)S2 [Example 171, (1S,5S,6S)-3-amino-5-(5-((Z)-2-(6-cyanopyridin-3-yl)-2-fluorovinyl)-2-fluorophenyl)-N,N,5-trimethyl-2-thia-4-azabicyclo[4.1.0]hept-3-ene-1-carboxamide]	0.642 µM	824 µM
CC1CC(C)CN(C(=O)[C@]23C[C@H]2[C@@](C)(c2cc(/C=C(\F)c4ccc(C#N)cn4)ccc2F)N=C(N)S3)C1 (stereo partly drawn) [Example 137, 6-((Z)-2-(3-((1S,5S,6S)-3-amino-1-(3,5-dimethylpiperidine-1-carbonyl)-5-methyl-2-thia-4-azabicyclo[4.1.0]hept-3-en-5-yl)-4-fluorophenyl)-1-fluorovinyl)nicotinonitrile]	0.21 µM	43.2 µM
C[C@]1(c2cc(/C=C(\F)c3ccc(C#N)cn3)ccc2F)N=C(N)S[C@@]2(C(=O)NC3CC3)C[C@H]21 [Example 121, (1S,5S,6S)-3-amino-5-(5-((Z)-2-(5-cyanopyridin-2-yl)-2-fluorovinyl)-2-fluorophenyl)-N-cyclopropyl-5-methyl-2-thia-4-azabicyclo[4.1.0]hept-3-ene-1-carboxamide]	0.164 µM	52.9 µM
C#CCOc1cnc(/C(F)=C/c2cnc(F)c([C@@]3(C)N=C(N)S[C@@]4(C(=O)O)C[C@H]43)c2)cn1 [Example 285, (1S,5S,6S)-3-amino-5-(2-fluoro-5-((Z)-2-fluoro-2-(5-(prop-2-yn-1-yloxy)pyrazin-2-yl)vinyl)pyridin-3-yl)-5-methyl-2-thia-4-azabicyclo[4.1.0]hept-3-ene-1-carboxylic acid]	6.35 µM	316 µM
COC[C@]12C[C@H]1[C@@](C)(c1cc(/C=C(\F)c3cnc(OC(C)C(F)(F)F)cn3)ccc1F)N=C(N)S2 (stereo partly shown) [Example 277]	2.42 µM	207 µM
CN(C)C(=O)[C@]12C[C@H]1[C@@](C)(c1cc(/C=C(\F)c3cnc(Br)cn3)ccc1F)N=C(N)S2 [Example 157, (1S,5S,6S)-3-amino-5-(5-((Z)-2-(5-bromopyrazin-2-yl)-2-fluorovinyl)-2-fluorophenyl)-N,N,5-trimethyl-2-thia-4-azabicyclo[4.1.0]hept-3-ene-1-carboxamide]	0.0262 µM	39.1 µM
COC[C@]12C[C@H]1[C@@](C)(c1cc(/C=C(\F)c3cnc(Cl)cn3)ccc1F)N=C(N)S2 [Example 261, (1S,5S,6S)-5-(5-((Z)-2-(5-chloropyrazin-2-yl)-2-fluorovinyl)-2-fluorophenyl)-1-(methoxymethyl)-5-methyl-2-thia-4-azabicyclo[4.1.0]hept-3-en-3-amine]	0.08 µM	357 µM
CNC(=O)[C@]12C[C@H]1[C@@](C)(c1cc(/C=C(\F)c3cnc(OCC(F)(F)C(F)F)cn3)ccc1F)N=C(N)S2 [Example 161, (1S,5S,6S)-3-amino-5-(2-fluoro-5-((Z)-2-fluoro-2-(5-(2,2,3,3-tetrafluoropropoxy)pyrazin-2-yl)vinyl)phenyl)-N,5-dimethyl-2-thia-4-azabicyclo[4.1.0]hept-3-ene-1-carboxamide]	0.755 µM	–
C#Cc1cnc(/C(F)=C/c2ccc(F)c([C@@]3(C)N=C(N)S[C@@]4(C(=O)NC)C[C@H]43)c2)cn1 [Example 167, (1S,5S,6S)-3-amino-5-(5-((Z)-2-(5-ethynylpyrazin-2-yl)-2-fluorovinyl)-2-fluorophenyl)-N,5-dimethyl-2-thia-4-azabicyclo[4.1.0]hept-3-ene-1-carboxamide]	0.16 µM	–

Now from value to molecule:

IC50 (BACE2)	IC50 (Cathepsin D (CatD))	Compound
0.0892 µM	144 µM	C[C@]1(c2cc(/C=C(\F)c3ccc(C#N)cn3)ccc2F)N=C(N)S[C@@]2(C(=O)NC3CCOCC3)C[C@H]21 [Example 128, (1S,5S,6S)-3-amino-5-(5-((Z)-2-(5-cyanopyridin-2-yl)-2-fluorovinyl)-2-fluorophenyl)-5-methyl-N-(tetrahydro-2H-pyran-4-yl)-2-thia-4-azabicyclo[4.1.0]hept-3-ene-1-carboxamide]
0.294 µM	175 µM	CC(=O)COc1cnc(/C(F)=C/c2cnc(F)c([C@@]3(C)N=C(N)S[C@@]4(C(=O)N(C)C)C[C@H]43)c2)cn1 [Example 288, (1S,5S,6S)-3-amino-5-(2-fluoro-5-((Z)-2-fluoro-2-(5-(2-oxopropoxy)pyrazin-2-yl)vinyl)pyridin-3-yl)-N,N,5-trimethyl-2-thia-4-azabicyclo[4.1.0]hept-3-ene-1-carboxamide]
3.86 µM	1320 µM	COC[C@]12C[C@H]1[C@@](C)(c1cc(/C=C(\F)c3cnc(OC[C@H](C)OC)cn3)ccc1F)N=C(N)S2 [Example 265]
1.84 µM	492 µM	CC#CCOc1cnc(/C(F)=C/c2ccc(F)c([C@@]3(C)N=C(N)S[C@@]4(COC)C[C@H]43)c2)cn1 [Example 263]
0.00305 µM	1700 µM	CN(C)C(=O)[C@]12C[C@H]1[C@@](C)(c1cc(/C=C(\F)c3ncc(C#N)cn3)ccc1F)N=C(N)S2 [Example 170, (1S,5S,6S)-3-amino-5-(5-((Z)-2-(5-cyanopyrimidin-2-yl)-2-fluorovinyl)-2-fluorophenyl)-N,N,5-trimethyl-2-thia-4-azabicyclo[4.1.0]hept-3-ene-1-carboxamide]
0.0174 µM	42.6 µM	CC1CCCN(C(=O)[C@]23C[C@H]2[C@@](C)(c2cc(/C=C(\F)c4ccc(C#N)cn4)ccc2F)N=C(N)S3)C1 (stereo partly drawn) [Example 145, 6-((Z)-2-(3-((1S,5S,6S)-3-amino-5-methyl-1-(3-methylpiperidine-1-carbonyl)-2-thia-4-azabicyclo[4.1.0]hept-3-en-5-yl)-4-fluorophenyl)-1-fluorovinyl)nicotinonitrile]
–	97.6 µM	C[C@]1(c2cc(/C=C(\F)c3ccc(Cl)cn3)ccc2F)N=C(N)S[C@@]2(C(=O)N3CCC3)C[C@H]21 [Example 112, ((1S,5S,6S)-3-amino-5-(5-((Z)-2-(5-chloropyridin-2-yl)-2-fluorovinyl)-2-fluorophenyl)-5-methyl-2-thia-4-azabicyclo[4.1.0]hept-3-en-1-yl)(azetidin-1-yl)methanone]
0.0823 µM	167 µM	CN(C)C(=O)[C@]12C[C@H]1[C@@](C)(c1cc(/C=C(\F)c3cnc(OCC(F)(F)F)cn3)ccc1F)N=C(N)S2 [Example 155, (1S,5S,6S)-3-amino-5-(2-fluoro-5-((Z)-2-fluoro-2-(5-(2,2,2-trifluoroethoxy)pyrazin-2-yl)vinyl)phenyl)-N,N,5-trimethyl-2-thia-4-azabicyclo[4.1.0]hept-3-ene-1-carboxamide]
0.00574 µM	609 µM	CN(C)C(=O)[C@]12C[C@H]1[C@@](C)(c1cc(/C=C(\F)c3ccc(Cl)cn3)cnc1F)N=C(N)S2 [Example 178, (1S,5S,6S)-3-amino-5-(5-((Z)-2-(5-chloropyridin-2-yl)-2-fluorovinyl)-2-fluoropyridin-3-yl)-N,N,5-trimethyl-2-thia-4-azabicyclo[4.1.0]hept-3-ene-1-carboxamide]
0.241 µM	2140 µM	C[C@]1(c2cc(/C=C(\F)c3ccc(C#N)cn3)cnc2F)N=C(N)S[C@@]2(C(=O)N3CCOCC3)C[C@H]21 [Example 183, 6-((Z)-2-(5-((1S,5S,6S)-3-amino-5-methyl-1-(morpholine-4-carbonyl)-2-thia-4-azabicyclo[4.1.0]hept-3-en-5-yl)-6-fluoropyridin-3-yl)-1-fluorovinyl)nicotinonitrile]
–	57.6 µM	CC(O)CCNC(=O)[C@]12C[C@H]1[C@@](C)(c1cc(/C=C(\F)c3ccc(Cl)cn3)ccc1F)N=C(N)S2 (stereo partly drawn) [Example 115, (1S,5S,6S)-3-amino-5-(5-((Z)-2-(5-chloropyridin-2-yl)-2-fluorovinyl)-2-fluorophenyl)-N-(3-hydroxybutyl)-5-methyl-2-thia-4-azabicyclo[4.1.0]hept-3-ene-1-carboxamide]
